Assay results reported in patent US9302993B2, “8-hydroxy quinoline derivatives” (PRANA BIOTECHNOLOGY LIMITED, priority 2002, dated 2016).
Converted amounts (≈) assume the structure as drawn. “And” between values parts separate entries of the source, which are not always exact repeats. Equal values may be shown once. Read-outs that look alike come from different tables or passages of the source.

How the values were obtained:
[1] = E Log D, chromatographic method (Assay 13); assay type: physicochemical; details: SUPELCOSIL LC-ABZ column with octanol saturated mobile phase, pH 7.4; read-out: E Log D7.4
Protocol: Effective Log D values were measured using a chromatographic method employing a SUPELCOSIL LC-ABZ column using an octanol saturated mobile phase at pH 7.4.

[2] = test system: Aβ in extract of tissue from post mortem human AD brain; assay: Human brain amyloid solubilisation assay (Assay 9, BAS); assay type: biochemical; details: solubilising plaques relative to PBS
Protocol: Assay 9. Human Brain Amyloid Solubilisation Assay
This assay was performed in order to assess the ability of a test compound to mobilise Aβ from the insoluble to the soluble phase of an extract of tissue from post mortem human AD brain.
Up to 0.5 g of plaque-bearing cortex without meninges was homogenized using a DIAX 900 homogenizer (Heudolph and Co, Kelheim, Germany) or other suitable device for three 30-second periods at full speed in 2 ml of ice-cold phosphate-buffered saline, pH 7.4. To obtain the phosphate-buffered saline-extractable fraction, the homogenate was centrifuged at 100,000×g for 30 min and the supernatant removed. Alternatively, the tissue was freeze dried then pulverised to form a powder which was then weighed out into aliquots for extraction as above. Supernatant, either freeze-dried and resuspended or in unconcentrated form, was dissolved in 200 μl of Tris-Tricine sodium dodecyl sulfate (SDS) sample buffer pH 8.3 containing 8% SDS, 10% 2-mercaptoethanol. Aliquots (10 μl) were then boiled for 10 minutes before SDS-polyacrylamide gel electrophoresis. The insoluble fraction of the cortical samples was obtained by resuspending the initial pelleted sample in 1 ml of phosphate-buffered saline. A 50-μl aliquot of this suspension was then boiled in […] of sample buffer as above.
Tris-Tricine polyacrylamide gel electrophoresis was performed by loading appropriately diluted samples on to 10% to 20% gradient gels (Novex, San Diego, Calif.) followed by transfer on to 0.2-μm nitrocellulose membrane (Bio-Rad, Hercules, Calif.). Aβ was detected by using monoclonal antibody W02, which detects residues 5 through 8, […] (or another suitable antibody) in conjunction with horseradish peroxidase-conjugated rabbit anti-mouse IgG (Dako, Denmark), and visualized by using enhanced chemiluminescence (eg ECL; Amersham Life Science, Buckinghamshire, UK). Each gel included three lanes containing 0.5, 1, and 2 ng of synthetic Aβ40 (Keck Laboratory, Yale University, New Haven, Conn.) as reference standards.
Blot films were scanned by using a suitable imaging system such as the UVP gel documentation system, and densitometry performed using suitable software, eg UVP Labworks. The dynamic range of the film/scanner was determined by using a step tablet (No. 911ST600, Kodak, Rochester N.Y.), a calibrated film exposed by the manufacturer to provided steps of known increasing intensity. The quantifiable range of signal intensity for densitometric analysis of the mono- and dimeric Aβ bands was based on the comparison with a curve obtained by scanning and densitometry of the step tablet.
All samples were analysed at least twice, and gel loadings and dilutions were adjusted to fit within the quantifiable region of the standard curve. […] The insoluble Aβ being comprised of the pelletable fraction derived from the insoluble amyloid plaque from the above cortical samples and the soluble fraction comprising monomeric and/or oligomeric soluble Aβ.

[3] = test system: APP2576 transgenic mouse; assay: Effect of administration of test compounds on Aβ deposits in transgenic animals (Assay 11); assay type: in vivo; parameters: concentration or dose not given beside the values; details: transgenic mouse brains
[4] = test system: Neuronal cortical cells; assay: Assay for test compound cytoxicity, MTS (Assay 3(d)); assay type: cell-based, mouse; details: BL6J×129sv, mouse, 4 days
[5] = Turbidimetric solubility measurements (Assay 13); assay type: physicochemical; details: kinetic from dmso stock, 1% DMSO, nephelometry
Protocol: Turbidimetric Solubility Measurements
The solubility estimate was measured at both pH 2.0 and pH 6.5. This is within the pH range that can be anticipated along the proximal gastrointestinal tract in humans.
The compounds were dissolved in DMSO to appropriate concentrations and then spiked into either 0.01M HCl (approx. pH=2.0) or pH 6.5 isotonic phosphate buffer, the final DMSO concentration being 1%. Samples were then analysed via Nephelometry to determine a solubility range. [as per D. Bevan and R. S. Lloyd, Anal. Chem. 2000, 72, 1781-1787].

[6] = test system: APP2576 transgenic mouse; assay: Transgenic mouse brain immunohistochemistry, plaque abundance (Assay 15); assay type: in vivo
Excerpt: Assay 15. Transgenic Mouse Brain Immunohistochemistry
The APP2576 transgenic mouse (Hsiao et al., 1996) as referred to in Assay 11 were utilized in this assay. The contralateral formalin-fixed mouse brain tissue was coronally cut. Sections (10 μm) were taken from the corresponding sites and treated with 80% formic acid for antigen retrieval. The primary antibody used was monoclonal antibody 1E8, which recognizes epitopes between residues 18 and 22 of Aβ (SmithKline Beecham, UK). Immunoreactivity was developed with secondary antibody linked to horseradish peroxidase (using a 3,39-diaminobenzidinechromagen) (Dako) and alkaline phosphatase (using 5-bromo-4-chloro 3-indoxyl phosphate and nitroblue tetrazolium chloride chromagen) (Dako). Plaque abundance per section was assessed by two operators blinded to treatment according to the following scale:
1=plaques present but very sparse
2=several plaques present
3=numerous plaques visible in restricted areas
4=plaques abundant and not restricted to any particular area.
Intermediate values eg 2.5 were assigned where applicable.
Students' t ‘test was used for comparisons between groups.

[7] = test system: Neuronal cortical cells treated with Aβ1-42; assay: Assay for Aβ neurotoxicity and Aβ neuroprotection (Assay 3(c)); assay type: cell-based, mouse; details: 20 uM Aβ1-42, 4 days, MTS
Protocol: Media was then replaced with Neurobasal media (Invitrogen Life Technologies) and B27 supplements (Invitrogen Life Technologies). Cultures were maintained at 37° C. in 5% CO2. Prior to experimentation, the culture medium was replaced with Neurobasal media and B27 minus antioxidants (Invitrogen Life Technologies).
(c) Assay for Aβ Neurotoxicity and Aβ Neuroprotection
Neuronal cortical cells were cultured for five days as per Assay 2. On day six the neurobasal (NB) media (Invitrogen Life Technologies) and B27 supplement (Invitrogen Life Technologies) were replaced with NB media and B27 supplement (no antioxidants). On day six, test compounds were individually added to the neuronal cell cultures:
Aβ was initially dissolved in 20 mM NaOH to a concentration of 1 mM and sonicated for 5 minutes. The peptide was then diluted in H2O and 10×PBS to a final concentration of 200 uM Aβ in 1×PBS. The peptide was again sonicated for 5 minutes and then spun at 14000 rpm for 5 min and transferred to a fresh tube.
The test compounds were dissolved in 100% DMSO to a concentration of 2.5 mM (10 mM if excess compound was weighed out per vial—then diluted to 2.5 mM). […] Test compounds were not added directly to cells, instead they were added to a 48 well ‘Drug Plate’ as comprised below:
The Drug Plate was incubated at 37° C. for 15 mins. 200 ul of each well was added in triplicate to the corresponding cell plate. The cell plate was incubated at 37 C, for 4 days.
On the 4th day after treating the cells the assay is completed by adding MTS to the cells.

[8] = molecular target: T1, hydrogen peroxide generation by Aβ in the presence of copper (Homo sapiens, UniProt P05067); assay: Fluorometric H2O2 assay (Assay 1); assay type: biochemical; details: Aβ 1-42 with Cu-Gly, DCF/HRP, 37 C 60 min; several values in one cell = repeat determinations; read-out: Peroxide IC50
T1 construct: The reaction solutions contained Aβ 1-42 at concentrations in the range of 50 nM to 1 μM
Outline: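 Aβ1-42 (50 nM–1 μM) with Cu-glycine (2 Cu-Gly : 1 Aβ) and a reductant (dopamine 5 μM or ascorbic acid) was incubated 60 min at 37 °C in PBS pH 7.4 with test compound. H2O2 was detected with 100 μM deacetylated DCF and 0.1 μM HRP by fluorescence against H2O2 standards.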

T1 sequence (P05067 672-713 limits assumed): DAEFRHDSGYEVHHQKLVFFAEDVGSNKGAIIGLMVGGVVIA

| SMILES | chromatographic logD [1] | BAS Score [2] | Insoluble fraction. % change compared with control. ([3]; insoluble Aβ) | Soluble fraction. % change compared with control. ([3]; soluble Aβ) | Test Compound Cytoxicity 1 uM [4] | Test Compound Cytoxicity 10 uM [4] | solubility ([5]; aqueous buffer, pH 6.5 isotonic phosphate buffer, read-out: Solubility pH 6.5) | solubility ([5]; simulated gastric fluid, 0.01M HCl (approx. pH 2.0), read-out: Solubility (μg/mL) 0.01M HCl) | % difference from control (sham treated animal) ([6]; plaque score) | Mean plaque score ([6]; scale 0 to 4) | % inhibition Abeta toxicity [7] | Test Compound Cytoxicity 0.1 um [4] | Viable 10 uM [4] | IC50 [8] |
| --- | --- | --- | --- | --- | --- | --- | --- | --- | --- | --- | --- | --- | --- | --- |
| Oc1c(Cl)cc(Cl)c2ccc(-c3ccccn3)nc12 [compound 1052, 5,7-dichloro-8-hydroxy-2-(2-pyridyl)quinoline] | 2.85 | + | −22% | negligible | 63 | 32 | < 3.1 µg/mL | 6.3 to 12.5 µg/mL (≈ 21.6 to 42.9 µM) | −8% | 3.2 | 19% |  |  |  |
| O=C(NCCc1ccccn1)c1ccc2cccc(O)c2n1 [compound 950] |  | + |  |  | 88 | 89 |  |  |  |  | 5% | 95% | 92.8 | 250 nM |
| Oc1c(Cl)cc(Cl)c2cccnc12 [compound 45] |  | ++ |  |  | 92 | 67 |  |  |  |  | 28% | 100% |  | 700 nM |
| Oc1c(Br)cc(-c2ccccc2)c2cccnc12 [compound 806] |  | ++ |  |  | 78 | 38 |  |  |  |  | 36% | 99% |  | < 1200 nM |
| Oc1c(I)cc(Cl)c2cccnc12 [compound 1, clioquinol, reference compound] |  | ++ |  |  | 90 | 77 |  |  |  |  | 16% | 78% |  | 400 to 500 nM |
| Cc1ccccc1-c1cc(Cl)c2cccnc2c1O [compound 854] |  | + |  |  | 81 | 36 |  |  |  |  | 22% | 94% |  | < 780 nM |
| Cc1cnc(NC(=O)c2ccc3cccc(O)c3n2)s1 [compound 953] |  | + |  |  | 85 | 53 |  |  |  |  | 25% | 101% | 67.8 | < 4240 nM and 620 nM |
| O=C(NCCc1c[nH]cn1)c1ccc2cccc(O)c2n1 [compound 948] |  | + |  |  | 79 | 85 |  |  |  |  | 9% | 100% | 106.66 | 190 nM |
